# Experiments:
# soluble JAM-A = assay: ELISA of JAM-A antigen in plasma, murine 4T1 breast cancer model; assay type: in vivo, mouse; details: 4T1 tumor-bearing BALB/c mice and control littermates; Tβ4 15 μg/kg or TGF-β1 5 μg/kg i.p., 21 days
# Protocol: All in vivo experiments were carried on female BALB/c mice aged 8 to 12 weeks purchased from Animal House of Institute of Biology, University of Bialystok (Bialystok, Poland). The mice were housed under standard conditions at the Animal House of the Medical University of Lodz (Lodz, Poland). All animal procedures and protocols were conducted in accordance with the Guide for the Care and Use of Laboratory Animals of the National Animal Care Committee and were approved by Local Ethical Committee for Animal Research in Lodz (license number 9/LB51/2017 from Jun. 2, 2017). All efforts were made to minimize animal suffering.
# Murine 4T1 cells were purchased from the American Type Culture Collection (ATCC, Manassas, Va., USA). The cells were maintained in RPMI-1640 (ATCC) with 10/o fetal bovine serum (FBS) and cultured in tissue culture flasks to 80% confluence. […]
# The unbound biotinylated antibody was washed away and HRP-conjugated streptavidin was added to the wells. […] Regarding the both protocols, the enzyme-substrate (HRP-TMB) reaction was terminated by the addition of a sulfuric acid solution and the color change was measured spectrophotometrically at a wavelenght of 450 nm using the Wallac 1420 VICTOR2 Multilabel Counter (PerkinElmer). The concentration of target antigen in the samples was determined by comparing the optical density of the samples to the standard curve.
# JAM-A = assay: Western blot of JAM-A protein in HMEC-1 cells; assay type: cell-based, human; details: Tβ4 200 nM or TGF-β1 10 ng/mL, 24-hours incubation
# Protocol: The cells were lysed with lysis buffer (1% Triton X-100 and 0.1% SDS in PBS) supplemented with Halt Protease Inhibitor Cocktail (Thermo Scientific, Waltham, Mass., USA). For the equalization between the samples before the semi-quantitative analyses the protein content of lysates was determined with the BCA Protein Assay Kit according to the manufacturer's protocol (Thermo Scientific). Cell lysate aliquots at a protein content of 50 μg per sample were boiled with 5× concentrated loading buffer (final concentrations: 50 mM Tris-HCl, pH 6.8, 8% glycerol, 2% SDS, 5% β-mercaptoethanol, 0.002% bromophenol blue), separated under reducing conditions on 4-20% gradient SDS-PAGE gels (Bio-Rad) and electroblotted (120 min, 200 mA, 4° C.) onto polyvinylidene difluoride (PVDF) membranes (Bio-Rad). The membranes were washed with Tris-buffered saline (TBS) and blocked for 2 hours with TBS containing 5% nonfat dry milk at room temperature. Then, the membranes were incubated overnight at 4° C. with an appropriate amount of primary antibody diluted in TBS containing 0.05% Tween 20 (TBST). The following primary antibodies were used: monoclonal rabbit anti-JAM-A (Abcam, Cambridge, UK) at a dilution of 1:500 and monoclonal mouse anti-GAPDH (R&D Systems, Minneapolis, Minn., USA) at a dilution of 1:1000. The membranes were washed several times with TBST and incubated for 1 hour at room temperature with the corresponding polyclonal anti-rabbit and anti-mouse HRP-conjugated secondary antibodies (Santa Cruz Biotechnology, Dallas, Tex., USA) at a 1:5000 dilution in TBST. Following the subsequent washes with TBST the membranes were further processed for chemiluminescent detection using Westar TiC ECL Substrate (Cyanagen, Bologna, Italy) and the images were documented by ChemiDoc MP Imager (Bio-Rad).
# JAM-A mRNA = assay: RT-PCR of JAM-A mRNA in HMEC-1 cells; assay type: cell-based, human; details: Tβ4 200 nM or TGF-β1 10 ng/mL
# JAM-A (CD321) = assay: Flow cytometry of JAM-A (CD321) on the surface of HMEC-1 cells; assay type: cell-based, human; details: Tβ4 200 nM, TGF-β1 10 ng/ml or TNF-α 10 ng/mL, 24 hours
# Description: For the detection of JAM-A surface expression the cells were labeled with FITC anti-human CD321 (F11R) Mouse IgG1 Antibody (BioLegend, San Diego, Calif., USA) or with the FITC Mouse IgG1 Isotype Control Antibody (BioLegend) for the negative control. Labeled cells were washed to remove unbound antibodies, harvested with ice cold EDTA/PBS, fixed with BD CellFix (Becton Dickinson. Franklin Lakes, N.J., USA) and subsequently analyzed by FACS Canto II flow cytometer (Becton Dickinson). Upon excitation at 488 nm with an argon laser the emission of the fluorescence was recorded through selective band pass filter at 517 nm. Data were recorded with DIVA software, version 6.0 (Becton Dickinson) and subsequently analyzed using FCSalyzer software, version 0.9.14-alpha (https://sourceforge.net/projects/fcsalyzer/).
Substance,JAM-A level in plasma (soluble JAM-A),level of JAM-A protein (JAM-A),JAM-A expression on mRNA level (JAM-A mRNA),JAM-A (CD321) level on the cell surface (JAM-A (CD321))
Transforming growth factor-β1 [TGF-β1],decreased the JAM-A plasma level,evidently reduced the level of JAM-A protein,no observed changes of JAM-A expression on mRNA level,slightly decreased JAM-A level on the membrane of HMEC-1 cells
tumor necrosis factor-α [TNF-α],,,,triggered a minor increase of CD321 expression

# From US10537610B1, “Peptide for inhibition of cancer” (priority 2018, dated 2020)
